Source: the NIST ThermoML archive (doi:10.1016/j.jct.2018.07.012)

Assay: mn = molality of the nth substance listed, in mol/kg
Settings: for surface tension liquid-gas: Maximal bubble pressure; for mass density: 100 kPa, Liquid, Vibrating tube method

CC(=O)[O-].CCCCC[n+]1ccn(C)c1 [1-methyl-3-pentylimidazolium acetate] + O
Settings	mass density [kg/m3]	surface tension liquid-gas [mN/m]
288.15 K, m1 = 0.0113	1000.14	73.1
288.15 K, m1 = 0.0167	1000.28	73
288.15 K, m1 = 0.0278	1000.42	72.7
288.15 K, m1 = 0.0448	1000.64	72.2
288.15 K, m1 = 0.1117	1001.58	70.7
288.15 K, m1 = 0.1681	1002.3	69.3
288.15 K, m1 = 0.2233	1002.98	68
288.15 K, m1 = 0.2831	1003.85	66.7
288.15 K, m1 = 0.3358	1004.57	65.4
288.15 K, m1 = 0.3919	1005.36	64.1
288.15 K, m1 = 0.448	1006.14	62.9
288.15 K, m1 = 0.5032	1006.89	61.9
293.15 K, m1 = 0.0113	999.1	72.4
293.15 K, m1 = 0.0167	999.21	72.3
293.15 K, m1 = 0.0278	999.36	71.9
293.15 K, m1 = 0.0448	999.54	71.4
293.15 K, m1 = 0.1117	1000.47	69.9
293.15 K, m1 = 0.1681	1001.12	68.5
293.15 K, m1 = 0.2233	1001.89	67.4
293.15 K, m1 = 0.2831	1002.69	66
293.15 K, m1 = 0.3358	1003.38	64.7
293.15 K, m1 = 0.3919	1004.16	63.5
293.15 K, m1 = 0.448	1004.92	62.2
293.15 K, m1 = 0.5032	1005.68	61.2
298.15 K, m1 = 0.0113	997.82	71.6
298.15 K, m1 = 0.0167	997.9	71.4
298.15 K, m1 = 0.0278	998.08	71.1
298.15 K, m1 = 0.0448	998.25	70.7
298.15 K, m1 = 0.1117	999.05	69.3
298.15 K, m1 = 0.1681	999.71	67.9
298.15 K, m1 = 0.2233	1000.49	66.7
298.15 K, m1 = 0.2831	1001.32	65.4
298.15 K, m1 = 0.3358	1002.01	64.1
298.15 K, m1 = 0.3919	1002.76	62.9
298.15 K, m1 = 0.448	1003.5	61.7
298.15 K, m1 = 0.5032	1004.2	60.7
303.15 K, m1 = 0.0113	996.33	70.8
303.15 K, m1 = 0.0167	996.39	70.6
303.15 K, m1 = 0.0278	996.54	70.4
303.15 K, m1 = 0.0448	996.73	69.9
303.15 K, m1 = 0.1117	997.44	68.5
303.15 K, m1 = 0.1681	998.19	67
303.15 K, m1 = 0.2233	998.96	65.9
303.15 K, m1 = 0.2831	999.76	64.6
303.15 K, m1 = 0.3358	1000.44	63.3
303.15 K, m1 = 0.3919	1001.15	62.1
303.15 K, m1 = 0.448	1001.84	60.8
303.15 K, m1 = 0.5032	1002.51	59.8
308.15 K, m1 = 0.0113	994.67	69.9
308.15 K, m1 = 0.0167	994.74	69.8
308.15 K, m1 = 0.0278	994.85	69.5
308.15 K, m1 = 0.0448	995.01	69.1
308.15 K, m1 = 0.1117	995.82	67.6
308.15 K, m1 = 0.1681	996.5	66.2
308.15 K, m1 = 0.2233	997.24	65.1
308.15 K, m1 = 0.2831	998.03	63.9
308.15 K, m1 = 0.3358	998.7	62.7
308.15 K, m1 = 0.3919	999.4	61.4
308.15 K, m1 = 0.448	1000.08	60.2
308.15 K, m1 = 0.5032	1000.73	59.2
313.15 K, m1 = 0.0113	992.81	69.1
313.15 K, m1 = 0.0167	992.88	69
313.15 K, m1 = 0.0278	992.97	68.7
313.15 K, m1 = 0.0448	993.11	68.2
313.15 K, m1 = 0.1117	993.98	66.8
313.15 K, m1 = 0.1681	994.62	65.5
313.15 K, m1 = 0.2233	995.34	64.4
313.15 K, m1 = 0.2831	996.08	63.2
313.15 K, m1 = 0.3358	996.74	61.9
313.15 K, m1 = 0.3919	997.43	60.7
313.15 K, m1 = 0.448	998.1	59.5
313.15 K, m1 = 0.5032	998.74	58.6
318.15 K, m1 = 0.0113	990.79	68.3
318.15 K, m1 = 0.0167	990.87	68.2
318.15 K, m1 = 0.0278	990.95	67.9
318.15 K, m1 = 0.0448	991.1	67.5
318.15 K, m1 = 0.1117	991.99	66.1
318.15 K, m1 = 0.1681	992.61	64.8
318.15 K, m1 = 0.2233	993.28	63.6
318.15 K, m1 = 0.2831	994.03	62.3
318.15 K, m1 = 0.3358	994.67	61.1
318.15 K, m1 = 0.3919	995.33	60
318.15 K, m1 = 0.448	995.97	58.9
318.15 K, m1 = 0.5032	996.58	57.9
